For one assay, the system named is Listeria monocytogenes. Put plainly: Antimicrobial activity against Listeria monocytogenes assessed as inhibition of microbial growth incubated for 16 hrs by microdilution method. The format is functional. A general note: Dilution methods test growth across graded concentrations, often in twofold steps.
Assay [1] concerns Staphylococcus aureus. In words: Antimicrobial activity against Staphylococcus aureus assessed as inhibition of microbial growth incubated for 16 hrs by microdilution method. The format is functional.
Assay [2] has as its system Escherichia coli. Put plainly: Antimicrobial activity against Escherichia coli assessed as inhibition of microbial growth incubated for 16 hrs by microdilution method. It is filed as functional.
For another assay, the system named is Pseudomonas aeruginosa. Put plainly: Antimicrobial activity against Pseudomonas aeruginosa assessed as inhibition of microbial growth incubated for 16 hrs by microdilution method. The format is functional.
The subject of assay [3] is Escherichia coli.
Assay [4] relates to Staphylococcus aureus. Put plainly: Antimicrobial activity against methicillin-resistant Staphylococcus aureus assessed as inhibition of microbial growth incubated for 16 hrs by microdilution method. It is filed as functional.

Among the data in ChEMBL document CHEMBL4342499, “Novel Stapling by Lysine Tethering Provides Stable and Low Hemolytic Cationic Antimicrobial Peptides” (J Med Chem, 2020) are MIC99.9 values, retold here.

`CN[C@H](CC(C)C)C(=O)N[C@H]1C(=O)N[C@@H](CC(N)=O)C(=O)N[C@H]2C(=O)N[C@H]3C(=O)N[C@H](C(=O)N[C@H](C(=O)O)c4cc(O)cc(O)c4-c4cc3ccc4O)[C@H](O)c3ccc(c(Cl)c3)Oc3cc2cc(c3O[C@@H]2O[C@H](CO)[C@@H](O)[C@H](O)[C@H]2O[C@H]2C[C@](C)(N)[C@H](O)[C@H](C)O2)Oc2ccc(cc2Cl)[C@H]1O` [VANCOMYCIN]: the MIC99.9 with Listeria monocytogenes is 1 µg/mL; in the assay on Staphylococcus aureus [1], 2 µg/mL; in the assay with Escherichia coli [2], over 128 µg/mL; with Pseudomonas aeruginosa, over 128 µg/mL; against Escherichia coli [3], over 128 µg/mL; with Staphylococcus aureus [4], 2 µg/mL.
On to `CCN1CCN(C(=O)N[C@@H](C(=O)N[C@@H]2C(=O)N3C(C(=O)O)=C(CSc4nnnn4C)CS[C@H]23)c2ccc(O)cc2)C(=O)C1=O` [CEFOPERAZONE], for which the MIC99.9 in the assay with Listeria monocytogenes was 16 µg/mL; with Staphylococcus aureus [1], 0.5 µg/mL; with Escherichia coli [2], 0.125 µg/mL; in the assay on Pseudomonas aeruginosa, 2 µg/mL; in the assay with Escherichia coli [3] it was over 128 µg/mL; in the assay with Staphylococcus aureus [4], over 128 µg/mL.
